# Earlier results, collected in publication PMC9199361 (Inorganic chemistry, 2020).
# What was measured:
# [1] = copper complex of the chelator
# [2] = 5 M HCl, 90 °C
# [3] = for log KML: copper(II) complex of the chelator
E1/2 (V) [1],reversibility of the redox event at E1/2 [1],acid stability (conditions) [2],log KML [3],thermodynamic stability constant (log KML) ([3]; copper(II) complex),Structure (SMILES)
−0.88 V,quasi-rev,"254 h (5 M HCl, 90 °C)",27.1,–,O=C(O)CN1CCCN2CCN(CCCN(CC(=O)O)CC2)CC1 [CB-TE2A]
–,irrev,"<3 min (5 M HCl, 90 °C)",–,21.9,O=C(O)CN1CCN(CC(=O)O)CCN(CC(=O)O)CC1 [NOTA]
−0.980 V,irrev,"<4.5 min (5 M HCl, 90 °C)",21.9,–,O=C(O)CN1CCCN(CC(=O)O)CCN(CC(=O)O)CCCN(CC(=O)O)CC1 [TETA]
